# Data as given in US20150125889A1, “IN VITRO DETECTION OF MICROORGANISMS WITH AZOREDUCTASE ACTIVITY” (BIOMÉRIEUX, priority 2012, published 2015).
# Assays:
# Assay in all cases: Reduction of azo substrates over 24 hours at 35° C., microtitration plate (Example 1)
# Assay type in all cases: cell-based
# Candida albicans = tested on: Candida albicans; parameters: key to RED (substrate reduced or not): RED indicates whether the substrate is reduced (Y) or not (N); RED indicates whether the substrate is reduced (Y) or not (N); key to Co (growth, absorbance at 660 nm) / Decol (substrate decolourized, decrease in absorbance) / Fluo (fluorescence multiplied by 2 relative to substrate-free control): The symbol “+” means good growth/decolourization/significant increase in fluorescence; The symbol “+/−” means difficult growth; The symbol “−” means that there is no growth/decolourization/significant increase in fluorescence; conditions: substrate 35 mg/l
# Summary of the method: (§1)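 Strains were incubated 24 h at 35° C. in Trypcase soya broth with azo substrate (35 mg/l), starting from a 0.5 McFarland inoculum. Growth was monitored at 660 nm, while decolourization and fluorescence increase were scored at wavelengths specific to each substrate.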
# Staphylococcus aureus = tested on: Staphylococcus aureus; parameters: key to RED (substrate reduced or not): RED indicates whether the substrate is reduced (Y) or not (N); RED indicates whether the substrate is reduced (Y) or not (N); key to Co (growth, absorbance at 660 nm) / Decol (substrate decolourized, decrease in absorbance) / Fluo (fluorescence multiplied by 2 relative to substrate-free control): The symbol “+” means good growth/decolourization/significant increase in fluorescence; The symbol “+/−” means difficult growth; The symbol “−” means that there is no growth/decolourization/significant increase in fluorescence; conditions: S. aureus, substrate 35 mg/l
# Summary of the method: as §1
# Escherichia coli = tested on: Escherichia coli; parameters: key to RED (substrate reduced or not): RED indicates whether the substrate is reduced (Y) or not (N); RED indicates whether the substrate is reduced (Y) or not (N); key to Co (growth, absorbance at 660 nm) / Decol (substrate decolourized, decrease in absorbance) / Fluo (fluorescence multiplied by 2 relative to substrate-free control): The symbol “+” means good growth/decolourization/significant increase in fluorescence; The symbol “+/−” means difficult growth; The symbol “−” means that there is no growth/decolourization/significant increase in fluorescence; conditions: E. coli, substrate 35 mg/l
# Summary of the method: as §1
# Cronobacter muytjensii = tested on: Cronobacter muytjensii; parameters: key to RED (substrate reduced or not): RED indicates whether the substrate is reduced (Y) or not (N); RED indicates whether the substrate is reduced (Y) or not (N); key to Co (growth, absorbance at 660 nm) / Decol (substrate decolourized, decrease in absorbance) / Fluo (fluorescence multiplied by 2 relative to substrate-free control): The symbol “+” means good growth/decolourization/significant increase in fluorescence; The symbol “+/−” means difficult growth; The symbol “−” means that there is no growth/decolourization/significant increase in fluorescence; conditions: E. muytjensii, substrate 35 mg/l
# Summary of the method: as §1
# [1] = tested on: Staphylococcus epidermidis; parameters: key to RED (substrate reduced or not): RED indicates whether the substrate is reduced (Y) or not (N); RED indicates whether the substrate is reduced (Y) or not (N); key to Co (growth, absorbance at 660 nm) / Decol (substrate decolourized, decrease in absorbance) / Fluo (fluorescence multiplied by 2 relative to substrate-free control): The symbol “+” means good growth/decolourization/significant increase in fluorescence; The symbol “+/−” means difficult growth; The symbol “−” means that there is no growth/decolourization/significant increase in fluorescence; conditions: S. epidermidis, substrate 35 mg/l
# Summary of the method: as §1
# Geotrichum candidum = tested on: Geotrichum candidum; parameters: key to RED (substrate reduced or not): RED indicates whether the substrate is reduced (Y) or not (N); RED indicates whether the substrate is reduced (Y) or not (N); key to Co (growth, absorbance at 660 nm) / Decol (substrate decolourized, decrease in absorbance) / Fluo (fluorescence multiplied by 2 relative to substrate-free control): The symbol “+” means good growth/decolourization/significant increase in fluorescence; The symbol “+/−” means difficult growth; The symbol “−” means that there is no growth/decolourization/significant increase in fluorescence; conditions: G. candidum, substrate 35 mg/l
# Summary of the method: as §1
# Kocuria rosea = tested on: Kocuria rosea; parameters: key to RED (substrate reduced or not): RED indicates whether the substrate is reduced (Y) or not (N); RED indicates whether the substrate is reduced (Y) or not (N); key to Co (growth, absorbance at 660 nm) / Decol (substrate decolourized, decrease in absorbance) / Fluo (fluorescence multiplied by 2 relative to substrate-free control): The symbol “+” means good growth/decolourization/significant increase in fluorescence; The symbol “+/−” means difficult growth; The symbol “−” means that there is no growth/decolourization/significant increase in fluorescence; conditions: K. rosea, substrate 35 mg/l
# Summary of the method: as §1
# Pseudomonas aeruginosa = tested on: Pseudomonas aeruginosa; parameters: key to RED (substrate reduced or not): RED indicates whether the substrate is reduced (Y) or not (N); RED indicates whether the substrate is reduced (Y) or not (N); key to Co (growth, absorbance at 660 nm) / Decol (substrate decolourized, decrease in absorbance) / Fluo (fluorescence multiplied by 2 relative to substrate-free control): The symbol “+” means good growth/decolourization/significant increase in fluorescence; The symbol “+/−” means difficult growth; The symbol “−” means that there is no growth/decolourization/significant increase in fluorescence; conditions: P. aeruginosa, substrate 35 mg/l
# Summary of the method: as §1
# Acinetobacter baumanii = tested on: Acinetobacter baumanii; parameters: key to RED (substrate reduced or not): RED indicates whether the substrate is reduced (Y) or not (N); RED indicates whether the substrate is reduced (Y) or not (N); key to Decol (substrate decolourized, decrease in absorbance) / Fluo (fluorescence multiplied by 2 relative to substrate-free control) / Co (growth, absorbance at 660 nm): The symbol “+” means good growth/decolourization/significant increase in fluorescence; The symbol “+/−” means difficult growth; The symbol “−” means that there is no growth/decolourization/significant increase in fluorescence; conditions: A. baumannii, substrate 35 mg/l
# Summary of the method: as §1
# Enterococcus faecalis = tested on: Enterococcus faecalis; parameters: key to RED (substrate reduced or not): RED indicates whether the substrate is reduced (Y) or not (N); RED indicates whether the substrate is reduced (Y) or not (N); key to Decol (substrate decolourized, decrease in absorbance) / Fluo (fluorescence multiplied by 2 relative to substrate-free control) / Co (growth, absorbance at 660 nm): The symbol “+” means good growth/decolourization/significant increase in fluorescence; The symbol “+/−” means difficult growth; The symbol “−” means that there is no growth/decolourization/significant increase in fluorescence; conditions: E. faecalis, substrate 35 mg/l
# Summary of the method: as §1
SMILES,"Co (growth, absorbance at 660 nm) (Candida albicans)","Decol (substrate decolourized, decrease in absorbance) (Candida albicans)",Fluo (fluorescence multiplied by 2 relative to substrate-free control) (Candida albicans),RED (substrate reduced or not) (Candida albicans),"Co (growth, absorbance at 660 nm) (Staphylococcus aureus)","Decol (substrate decolourized, decrease in absorbance) (Staphylococcus aureus)",Fluo (fluorescence multiplied by 2 relative to substrate-free control) (Staphylococcus aureus),RED (substrate reduced or not) (Staphylococcus aureus),"Co (growth, absorbance at 660 nm) (Escherichia coli)","Decol (substrate decolourized, decrease in absorbance) (Escherichia coli)",Fluo (fluorescence multiplied by 2 relative to substrate-free control) (Escherichia coli),RED (substrate reduced or not) (Escherichia coli),"Co (growth, absorbance at 660 nm) (Cronobacter muytjensii)","Decol (substrate decolourized, decrease in absorbance) (Cronobacter muytjensii)",Fluo (fluorescence multiplied by 2 relative to substrate-free control) (Cronobacter muytjensii),RED (substrate reduced or not) (Cronobacter muytjensii),"Co (growth, absorbance at 660 nm) [1]","Decol (substrate decolourized, decrease in absorbance) [1]",Fluo (fluorescence multiplied by 2 relative to substrate-free control) [1],RED (substrate reduced or not) [1],also measured
"O=C(O)c1ccccc1/N=N/c1cc(Cl)c(O)c(Cl)c1 [2-(4-Hydroxy-3,5-dichlorophenylazo)benzoic acid]",+,−,−,N,+,+,+,Y,+,+,+,Y,+,+,+,Y,+,+,+,Y,"Co (growth, absorbance at 660 nm) (Geotrichum candidum): +; Decol (substrate decolourized, decrease in absorbance) (Geotrichum candidum): +; Fluo (fluorescence multiplied by 2 relative to substrate-free control) (Geotrichum candidum): +; RED (substrate reduced or not) (Geotrichum candidum): Y; Co (growth, absorbance at 660 nm) (Kocuria rosea): −; Decol (substrate decolourized, decrease in absorbance) (Kocuria rosea): −; Fluo (fluorescence multiplied by 2 relative to substrate-free control) (Kocuria rosea): −; Co (growth, absorbance at 660 nm) (Pseudomonas aeruginosa): +; Decol (substrate decolourized, decrease in absorbance) (Pseudomonas aeruginosa): −; Fluo (fluorescence multiplied by 2 relative to substrate-free control) (Pseudomonas aeruginosa): +; RED (substrate reduced or not) (Pseudomonas aeruginosa): Y; Co (growth, absorbance at 660 nm) (Acinetobacter baumanii): +; Decol (substrate decolourized, decrease in absorbance) (Acinetobacter baumanii): +; Fluo (fluorescence multiplied by 2 relative to substrate-free control) (Acinetobacter baumanii): +; RED (substrate reduced or not) (Acinetobacter baumanii): Y; Co (growth, absorbance at 660 nm) (Enterococcus faecalis): +; Decol (substrate decolourized, decrease in absorbance) (Enterococcus faecalis): +; Fluo (fluorescence multiplied by 2 relative to substrate-free control) (Enterococcus faecalis): +; RED (substrate reduced or not) (Enterococcus faecalis): Y"
O=S(=O)([O-])c1ccc2c(N=Nc3cccc4ccccc34)c(O)c(S(=O)(=O)[O-])cc2c1.[Na+].[Na+] [Bordeaux B],+,−,−,N,+,−,−,N,+,−,−,N,+,−,−,N,+,−,−,N,"Co (growth, absorbance at 660 nm) (Geotrichum candidum): +/−; Decol (substrate decolourized, decrease in absorbance) (Geotrichum candidum): −; Fluo (fluorescence multiplied by 2 relative to substrate-free control) (Geotrichum candidum): −; RED (substrate reduced or not) (Geotrichum candidum): N; Co (growth, absorbance at 660 nm) (Kocuria rosea): −; Decol (substrate decolourized, decrease in absorbance) (Kocuria rosea): −; Fluo (fluorescence multiplied by 2 relative to substrate-free control) (Kocuria rosea): −; Co (growth, absorbance at 660 nm) (Pseudomonas aeruginosa): +; Decol (substrate decolourized, decrease in absorbance) (Pseudomonas aeruginosa): −; Fluo (fluorescence multiplied by 2 relative to substrate-free control) (Pseudomonas aeruginosa): −; RED (substrate reduced or not) (Pseudomonas aeruginosa): N; Co (growth, absorbance at 660 nm) (Acinetobacter baumanii): +; Decol (substrate decolourized, decrease in absorbance) (Acinetobacter baumanii): −; Fluo (fluorescence multiplied by 2 relative to substrate-free control) (Acinetobacter baumanii): −; RED (substrate reduced or not) (Acinetobacter baumanii): N; Co (growth, absorbance at 660 nm) (Enterococcus faecalis): +; Decol (substrate decolourized, decrease in absorbance) (Enterococcus faecalis): +; Fluo (fluorescence multiplied by 2 relative to substrate-free control) (Enterococcus faecalis): +; RED (substrate reduced or not) (Enterococcus faecalis): Y"
